Test results reported in ChEMBL document CHEMBL3885861, “Open TG-GATES”.

Organism: Rattus norvegicus
Experiment: Open TG-GATES - Regimen: Single
Format: toxicity, organism-based, Sprague-Dawley
Set-up: regimen Single, gender Male, age 6 weeks
Settings: in vivo, po, route gavage; for APTT / Bas / Eos / Fbg / Hb / Ht / Lym / MCH / MCHC / MCV / Mono / Neu / Plat / RBC / Ret / WBC: tissue Blood; for KIDNEY_L / KIDNEY_R / KIDNEY_TOTAL: tissue Kidney; for LIVER: tissue Liver; for ALP / ALT / AST / CRE / DBIL / GLC / IP / K / LDH / Na / PL / RALB / TBIL / TC / TG / TP / gamma-GTP: tissue Plasma
[1] = 100 mg/kg, 24 h, dose level Low
[2] = 300 mg/kg, 3 h, dose level Middle

CN(C)CCC=C1c2ccccc2COc2ccccc21 [DOXEPIN]
TERMINAL_BW (100 mg/kg, 9 h, dose level Low): 193.4 g | APTT (100 mg/kg, 9 h, dose level Low): 24.3 s | Bas (100 mg/kg, 9 h, dose level Low): 0% | Eos (100 mg/kg, 9 h, dose level Low): 0.8% | Fbg (100 mg/kg, 9 h, dose level Low): 284.4 mg/dL | Hb (100 mg/kg, 9 h, dose level Low): 13.5 g/dL | Ht (100 mg/kg, 9 h, dose level Low): 40.9% | Lym (100 mg/kg, 9 h, dose level Low): 80.4% | MCH (100 mg/kg, 9 h, dose level Low): 21.9 pg | MCHC (100 mg/kg, 9 h, dose level Low): 32.9% | MCV (100 mg/kg, 9 h, dose level Low): 66.5 fL | Mono (100 mg/kg, 9 h, dose level Low): 2.4% | Neu (100 mg/kg, 9 h, dose level Low): 16% | Plat (100 mg/kg, 9 h, dose level Low): 117.4 x10_4/uL | RBC (100 mg/kg, 9 h, dose level Low): 614.6 x10_4/ul | Ret (100 mg/kg, 9 h, dose level Low): 8.5% | WBC (100 mg/kg, 9 h, dose level Low): 81.6 x10_2/uL | KIDNEY_L (100 mg/kg, 9 h, dose level Low): 0.9 g | KIDNEY_R (100 mg/kg, 9 h, dose level Low): 0.9 g | KIDNEY_TOTAL (100 mg/kg, 9 h, dose level Low): 1.8 g | LIVER (100 mg/kg, 9 h, dose level Low): 7.7 g | ALP (100 mg/kg, 9 h, dose level Low): 1637.2 IU/L | ALT (100 mg/kg, 9 h, dose level Low): 33.8 IU/L | AST (100 mg/kg, 9 h, dose level Low): 69.4 IU/L | CRE (100 mg/kg, 9 h, dose level Low): 0.2 mg/dL | DBIL (100 mg/kg, 9 h, dose level Low): 0.002 mg/dL | GLC (100 mg/kg, 9 h, dose level Low): 167 mg/dL | IP (100 mg/kg, 9 h, dose level Low): 10.4 mg/dL | K (100 mg/kg, 9 h, dose level Low): 4 meq/L | LDH (100 mg/kg, 9 h, dose level Low): 99.6 IU/L | Na (100 mg/kg, 9 h, dose level Low): 144.8 meq/L | PL (100 mg/kg, 9 h, dose level Low): 135 mg/dL | RALB (100 mg/kg, 9 h, dose level Low): 2.5 g/dL | TBIL (100 mg/kg, 9 h, dose level Low): 0.062 mg/dL | TC (100 mg/kg, 9 h, dose level Low): 72.6 mg/dL | TG (100 mg/kg, 9 h, dose level Low): 26.6 mg/dL | TP (100 mg/kg, 9 h, dose level Low): 5.3 g/dL | gamma-GTP (100 mg/kg, 9 h, dose level Low): 1 IU/L | TERMINAL_BW [1]: 208.9 g | APTT [1]: 17.3 s | Bas [1]: 0% | Eos [1]: 0.8% | Fbg [1]: 264.6 mg/dL | Hb [1]: 14 g/dL | Ht [1]: 41.3% | Lym [1]: 78.2% | MCH [1]: 21.9 pg | MCHC [1]: 34% | MCV [1]: 64.4 fL | Mono [1]: 2.6% | Neu [1]: 17.4% | Plat [1]: 125.2 x10_4/uL | RBC [1]: 641.6 x10_4/ul | Ret [1]: 7.3% | WBC [1]: 97.7 x10_2/uL | KIDNEY_L [1]: 0.9 g | KIDNEY_R [1]: 0.9 g | KIDNEY_TOTAL [1]: 1.8 g | ALP [1]: 2097.8 IU/L | ALT [1]: 45 IU/L | AST [1]: 75.8 IU/L | CRE [1]: 0.2 mg/dL | DBIL [1]: 0.006 mg/dL | GLC [1]: 176.4 mg/dL | IP [1]: 7.5 mg/dL | K [1]: 4 meq/L | LDH [1]: 112.6 IU/L | Na [1]: 142 meq/L | PL [1]: 155.8 mg/dL | RALB [1]: 2.6 g/dL | TBIL [1]: 0.04 mg/dL | TC [1]: 80.4 mg/dL | TG [1]: 101 mg/dL | TP [1]: 5.6 g/dL | gamma-GTP [1]: 1 IU/L | TERMINAL_BW [2]: 198.6 g | APTT [2]: 17.8 s | Bas [2]: 0.2% | Eos [2]: 0.4% | Fbg [2]: 275.2 mg/dL | Hb [2]: 12.9 g/dL | Ht [2]: 40% | Lym [2]: 73% | MCH [2]: 21.7 pg | MCHC [2]: 32.1% | MCV [2]: 67.4 fL | Mono [2]: 3.2% | Neu [2]: 22.4% | Plat [2]: 112.8 x10_4/uL | RBC [2]: 593.6 x10_4/ul | Ret [2]: 10% | WBC [2]: 63.7 x10_2/uL | KIDNEY_L [2]: 0.9 g | KIDNEY_R [2]: 0.9 g | KIDNEY_TOTAL [2]: 1.8 g | LIVER [2]: 9 g | ALP [2]: 1422.6 IU/L | ALT [2]: 48 IU/L | AST [2]: 76.6 IU/L | CRE [2]: 0.1 mg/dL | DBIL [2]: 0.002 mg/dL | GLC [2]: 187.4 mg/dL | IP [2]: 10 mg/dL | K [2]: 3.9 meq/L | LDH [2]: 71.2 IU/L | Na [2]: 145.6 meq/L | PL [2]: 147.6 mg/dL | RALB [2]: 2.4 g/dL | TBIL [2]: 0.044 mg/dL | TC [2]: 78.6 mg/dL | TG [2]: 64.6 mg/dL | TP [2]: 5.3 g/dL | gamma-GTP [2]: 1.2 IU/L
